Reference: patent US20260224582A1, “Heterobicyclic amides as inhibitors of CD38” (Cerevance, Inc., priority 2022, published 2026)

Tests used:
Recombinant human CD38 = target: T1, Recombinant human CD38 (Homo sapiens, UniProt P28907); test: Human CD38 hydrolase assay (fluorescence-based, ε-NAD substrate); assay type: biochemical; settings: recombinant human CD38 0.8 nM, 4 μM ε-NAD, 30 min preincubation at 25° C.
T1 sequence (P28907 1-300): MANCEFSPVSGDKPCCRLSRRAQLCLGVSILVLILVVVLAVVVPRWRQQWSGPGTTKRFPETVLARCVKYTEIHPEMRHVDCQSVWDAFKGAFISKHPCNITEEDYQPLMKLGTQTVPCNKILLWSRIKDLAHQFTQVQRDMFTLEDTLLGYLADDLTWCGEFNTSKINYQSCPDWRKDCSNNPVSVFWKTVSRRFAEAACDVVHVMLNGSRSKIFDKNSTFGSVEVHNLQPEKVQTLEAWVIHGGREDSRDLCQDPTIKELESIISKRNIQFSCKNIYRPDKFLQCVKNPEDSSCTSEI
How it was run: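 Recombinant human CD38 (0.8 nM) preincubated 30 min at 25 °C with compound in PBS without Ca2+/Mg2+, 0.005% BSA, pH 7.4; reaction started with 4 μM ε-NAD. Fluorescence (ex 300/em 410 nm) change over 10 min converted to percent inhibition against tool-inhibitor controls; IC50 from 10-point half-log curves, four-parameter fit.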

[1] = Tissue binding assay (equilibrium dialysis), brain homogenate; assay type: in vitro ADME; settings: mouse brain homogenate, dialysis 4 hours at 37° C., pH 7.4
Experimental: (§1) Buffer preparation. A basic solution was prepared by dissolving 14.2 g/L Na2HPO4 and 8.77 g/L NaCl in deionized H2O. An acidic solution was prepared by dissolving 15.6 g/L NaH2PO4·2H2O and 8.77 g/L NaCl in deionized H2O. Using the acidic solution, the basic solution was then titrated to pH 7.4±0.1 and stored at 4° C. for up to 1 month. The stop solution was 100% CH3CN containing 200 ng/ml tolbutamide, 200 ng/ml labetalol and 50 ng/ml metformin.
(§2) Test method. Dialysis membrane strips were soaked in ultra-pure water at room temperature for ~1 hour. Each membrane strip containing 2 membranes was separated and soaked in 20:80 EtOH/H2O (v/v) for ~20 min, after which they were ready for use or were stored in the solution at 2-8° C. for up to 1 month. Prior to the experiment, the membrane was rinsed and soaked for 20 min in ultra-pure water. On the day of experiment, brain homogenate was thawed in a water bath at room temperature and incubated at 37° C. for 10 min before use. Test and control compounds were dissolved in DMSO to achieve 10 mM stock solutions. DMSO working solutions were prepared at 400 μM by diluting 10 μL of stock solution. To prepare the time zero (t=0) samples to be used for recovery determination, 50 μL aliquots of loading matrix were transferred in triplicate to the sample collection plate. The samples were immediately matched with opposite blank buffer to obtain a final volume of 100 μL of 1:1 matrix/dialysis buffer (v/v) in each well. 500 μL of stop solution were added to these t=0 samples. They were then stored at 2-8° C. pending further processes along with other post-dialysis samples. To load the dialysis device, an aliquot of 150 μL of the loading matrix was transferred to the donor side of each dialysis well in triplicate, and 150 μL of the dialysis buffer was loaded to the receiver side of the well. The dialysis plate was placed in a humidified incubator at 37° C. with 5% CO2 on a shaking platform that rotated slowly (about 100 rpm) for 4 hours. At the end of the dialysis, aliquots of 50 μL of samples were taken from both the buffer side and the matrix side of the dialysis device. These samples were transferred into new 96-well plates. Each sample was mixed with an equal volume of opposite blank matrix (buffer or matrix) to reach a final volume of 100 μL of 1:1 matrix/dialysis buffer (v/v) in each well. All samples were further processed by adding 500 μL of stop solution containing internal standards. The mixture was vortexed and centrifuged at 4000 rpm for about 20 min. An aliquot of 100 μL of supernatant of all the samples was then removed for LC-MS/MS analysis. The single blank samples were prepared by transferring 50 μL of blank matrix to a 96-well plate and adding 50 μL of blank PBS buffer to each well. Then the matrix-matched samples were further processed by adding 500 μL of stop solution containing internal standards, following the same sample processing method as the dialysis samples.
(§3) Data analysis. The % undiluted unbound, % undiluted bound and % recovery were calculated using the following equations: […]
(§4) where F is the analyte concentration or peak area ratio of analyte/internal standard on the buffer (receiver) side of the membrane; T is the analyte concentration or peak area ratio of analyte/internal standard on the matrix (donor) side of the membrane; To is the analyte concentration or the peak area ratio of analyte/internal standard in the loading matrix sample at time zero; and D is the dilution factor determined as 4 in this assay.

[2] = Tissue binding assay (equilibrium dialysis), plasma; assay type: in vitro ADME; settings: mouse plasma, dialysis 4 hours at 37° C., pH 7.4
Experimental: [Worded in the source for another target; this target is reported under the same test.] as §1, §2, §3, §4

IC50 (Recombinant human CD38) [nM]	fraction unbound at 4 h [1]	fraction unbound at 4 h [2]	SMILES
≤ 40	0.41	0.4	O=C(N[C@H]1CC[C@H](NCC(F)(F)F)CC1)c1nc(-n2ccnc2)nc2ncccc12 [Example 4, 2-(1H-imidazol-1-yl)-N-((1r,4r)-4-((2,2,2-trifluoroethyl)amino)cyclohexyl)pyrido[2,3-d]pyrimidine-4-carboxamide]
≤ 40	0.068	0.062	O=C(N[C@H]1CC[C@H](N2CCC(F)(F)C2)CC1)c1nc(-n2ccnc2)nn2cccc12 [Example 12, N-((1r,4r)-4-(3,3-difluoropyrrolidin-1-yl)cyclohexyl)-2-(1H-imidazol-1-yl)pyrrolo[2,1-f][1,2,4]triazine-4-carboxamide]
≤ 40	0.056	0.22	O=C(N[C@H]1CC[C@H](N2CC[C@H](F)C2)CC1)c1nc(-n2ccnc2)nn2cccc12 [Example 13, N-((1S,4r)-4-((S)-3-fluoropyrrolidin-1-yl)cyclohexyl)-2-(1H-imidazol-1-yl)pyrrolo[2,1-f][1,2,4]triazine-4-carboxamide]
≤ 40	0.056	0.24	O=C(N[C@H]1CC[C@H](N2CC[C@@H](F)C2)CC1)c1nc(-n2ccnc2)nn2cccc12 [Example 14, N-((1R,4r)-4-((R)-3-fluoropyrrolidin-1-yl)cyclohexyl)-2-(1H-imidazol-1-yl)pyrrolo[2,1-f][1,2,4]triazine-4-carboxamide]
≤ 40	0.25	0.19	O=C(N[C@H]1CC[C@H](NCC(F)(F)F)CC1)c1cn2ccnc2c(-n2ccnc2)n1 [Example 19, 8-(1H-imidazol-1-yl)-N-((1r,4r)-4-((2,2,2-trifluoroethyl)amino)cyclohexyl) imidazo[1,2-a]pyrazine-6-carboxamide]
≤ 40	0.34	0.14	O=C(N[C@H]1CC[C@H](NCC(F)(F)F)CC1)c1cn2ncnc2c(-n2ccnc2)n1 [Example 20, 8-(1H-imidazol-1-yl)-N-((1r,4r)-4-((2,2,2-trifluoroethyl)amino)cyclohexyl)-[1,2,4]triazolo[1,5-a]pyrazine-6-carboxamide]
≤ 40	0.34	0.3	O=C(N[C@H]1CC[C@H](NCC(F)(F)F)CC1)c1cn2nccc2c(-n2ccnc2)n1 [Example 21, 4-(1H-imidazol-1-yl)-N-((1r,4r)-4-((2,2,2-trifluoroethyl)amino)cyclohexyl)pyrazolo[1,5-a]pyrazine-6-carboxamide]
≤ 40	0.064	0.044	O=C(N[C@H]1CC[C@H](NCC(F)(F)F)CC1)c1nc(-n2ccnc2)nn2cccc12 [Example 29, 2-(1H-imidazol-1-yl)-N-((1r,4r)-4-((2,2,2-trifluoroethyl)amino)cyclohexyl)pyrrolo[2,1-f][1,2,4]triazine-4-carboxamide]
≤ 100	0.15	0.2	O=C(N[C@H]1CC[C@H](N2CCC(F)(F)C2)CC1)c1cn2ccnc2c(-n2ccnc2)n1 [Example 41, N-((1r,4r)-4-(3,3-difluoropyrrolidin-1-yl)cyclohexyl)-8-(1H-imidazol-1-yl) imidazo[1,2-a]pyrazine-6-carboxamide]
≤ 40	0.15	0.2	O=C(N[C@H]1CC[C@H](N2CC(F)(F)C2)CC1)c1cn2ncnc2c(-n2ccnc2)n1 [Example 45, N-((1r,4r)-4-(3,3-difluoroazetidin-1-yl)cyclohexyl)-8-(1H-imidazol-1-yl)-[1,2,4]triazolo[1,5-a]pyrazine-6-carboxamide]
≤ 100	0.15	0.24	O=C(N[C@H]1CC[C@H](N2CCC(F)(F)C2)CC1)c1cn2ncnc2c(-n2ccnc2)n1 [Example 48, N-((1r,4r)-4-(3,3-difluoropyrrolidin-1-yl)cyclohexyl)-8-(1H-imidazol-1-yl)-[1,2,4]triazolo[1,5-a]pyrazine-6-carboxamide]
